From PMC3969223, “Characterization of WZ4003 and HTH-01-015 as selective inhibitors of the LKB1-tumour-suppressor-activated NUAK kinases” (Biochemical Journal, 2013)

Key:
Experiment in all cases: Kinase profiling
Format in all cases: biochemical
[1] = target: PHK (Homo sapiens, UniProt Q16816); conditions: 0.1 or 1 μM inhibitor; mean of triplicate
Summary of the method: (§1)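 Each kinase of a 140-member panel was assayed in vitro in the presence of 0.1 or 1 μM inhibitor, and activity was expressed as a percentage of DMSO control reactions. Triplicate reactions were averaged, reported ±S.D.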

[2] = target: RSK2 (Homo sapiens, UniProt P51812); conditions: 0.1 or 1 μM inhibitor; mean of triplicate
Summary of the method: as §1

[3] = test system: AMPK
Summary of the method: as §1

[4] = target: MAP4K3 (Homo sapiens, UniProt Q8IVH8); conditions: 0.1 or 1 μM inhibitor; mean of triplicate
Summary of the method: as §1

[5] = target: MINK1 (Homo sapiens, UniProt Q8N4C8); conditions: 0.1 or 1 μM inhibitor; mean of triplicate
Summary of the method: as §1

[6] = target: CAMKKβ (Homo sapiens, UniProt Q96RR4); conditions: 0.1 or 1 μM inhibitor; mean of triplicate
Summary of the method: as §1

[7] = target: MAPKAP-K3 (Homo sapiens, UniProt Q16644); conditions: 0.1 or 1 μM inhibitor; mean of triplicate
Summary of the method: as §1

[8] = target: HIPK3 (Homo sapiens, UniProt Q9H422); conditions: 0.1 or 1 μM inhibitor; mean of triplicate
Summary of the method: as §1

[9] = target: MARK3 (Homo sapiens, UniProt P27448)
Summary of the method: as §1

[10] = target: PKCγ (Homo sapiens, UniProt P05129); conditions: 0.1 or 1 μM inhibitor; mean of triplicate
Summary of the method: as §1

[11] = target: EPH-B2 (Homo sapiens, UniProt P29323); conditions: 0.1 or 1 μM inhibitor; mean of triplicate
Summary of the method: as §1

[12] = target: MST4 (Homo sapiens, UniProt Q9P289); conditions: 0.1 or 1 μM inhibitor; mean of triplicate
Summary of the method: as §1

[13] = target: VEG-FR (Homo sapiens, UniProt P17948); conditions: 0.1 or 1 μM inhibitor; mean of triplicate
Summary of the method: as §1

[14] = target: MKK1 (Homo sapiens, UniProt Q02750); conditions: 0.1 or 1 μM inhibitor; mean of triplicate
Summary of the method: as §1

[15] = target: CSK (Homo sapiens, UniProt P41240); conditions: 0.1 or 1 μM inhibitor; mean of triplicate
Summary of the method: as §1

[16] = target: SIK2 (Homo sapiens, UniProt Q9H0K1); conditions: 0.1 or 1 μM inhibitor; mean of triplicate
Summary of the method: as §1

[17] = target: TTBK1 (Homo sapiens, UniProt Q5TCY1); conditions: 0.1 or 1 μM inhibitor; mean of triplicate
Summary of the method: as §1

[18] = target: TGFBR1 (Homo sapiens, UniProt P36897); conditions: 0.1 or 1 μM inhibitor; mean of triplicate
Summary of the method: as §1

[19] = target: ASK1 (Homo sapiens, UniProt Q99683); conditions: 0.1 or 1 μM inhibitor; mean of triplicate
Summary of the method: as §1

[20] = target: EPH-B3 (Homo sapiens, UniProt P54753); conditions: 0.1 or 1 μM inhibitor; mean of triplicate
Summary of the method: as §1

[21] = target: IGF-1R (Homo sapiens, UniProt P08069); conditions: 0.1 or 1 μM inhibitor; mean of triplicate
Summary of the method: as §1

[22] = target: PIM2 (Homo sapiens, UniProt Q9P1W9); conditions: 0.1 or 1 μM inhibitor; mean of triplicate
Summary of the method: as §1

[23] = target: IRAK4 (Homo sapiens, UniProt Q9NWZ3); conditions: 0.1 or 1 μM inhibitor; mean of triplicate
Summary of the method: as §1

[24] = target: EPH-B1 (Homo sapiens, UniProt P54762); conditions: 0.1 or 1 μM inhibitor; mean of triplicate
Summary of the method: as §1

[25] = target: EIF2AK3 (Homo sapiens, UniProt Q9NZJ5); conditions: 0.1 or 1 μM inhibitor; mean of triplicate
Summary of the method: as §1

[26] = target: PKCζ (Homo sapiens, UniProt Q05513); conditions: 0.1 or 1 μM inhibitor; mean of triplicate
Summary of the method: as §1

[27] = target: p38β MAPK (Homo sapiens, UniProt Q15759); conditions: 0.1 or 1 μM inhibitor; mean of triplicate
Summary of the method: as §1

[28] = target: TIE2 (Homo sapiens, UniProt Q02763); conditions: 0.1 or 1 μM inhibitor; mean of triplicate
[29] = target: LKB1 (Homo sapiens, UniProt Q15831); conditions: 0.1 or 1 μM inhibitor; mean of triplicate
Summary of the method: as §1

[30] = target: T1, NUAK1 (Homo sapiens, UniProt O60285); conditions: 0.1 or 1 μM inhibitor; mean of triplicate
T1 construct: made in house; host or cells: HEK-293 cells, transient transfection of pEBG2T construct
T1 sequence (O60285 1-661): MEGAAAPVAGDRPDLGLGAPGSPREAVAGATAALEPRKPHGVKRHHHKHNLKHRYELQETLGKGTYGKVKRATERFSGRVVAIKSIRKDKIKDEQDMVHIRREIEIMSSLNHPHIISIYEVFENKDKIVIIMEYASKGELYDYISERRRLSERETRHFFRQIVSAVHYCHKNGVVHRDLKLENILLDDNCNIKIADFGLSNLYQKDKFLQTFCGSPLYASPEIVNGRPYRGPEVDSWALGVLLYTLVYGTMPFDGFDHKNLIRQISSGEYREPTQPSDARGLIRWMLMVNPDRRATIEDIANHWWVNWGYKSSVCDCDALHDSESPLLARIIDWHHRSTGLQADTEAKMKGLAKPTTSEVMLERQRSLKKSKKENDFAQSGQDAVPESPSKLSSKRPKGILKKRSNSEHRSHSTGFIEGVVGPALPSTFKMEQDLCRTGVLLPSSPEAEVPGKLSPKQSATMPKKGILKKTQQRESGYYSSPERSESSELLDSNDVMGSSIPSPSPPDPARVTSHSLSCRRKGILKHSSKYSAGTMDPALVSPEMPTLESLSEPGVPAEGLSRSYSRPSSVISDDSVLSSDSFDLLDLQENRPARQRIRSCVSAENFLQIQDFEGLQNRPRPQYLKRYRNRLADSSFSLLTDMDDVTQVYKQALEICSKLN

[31] = target: ROCK 2 (Homo sapiens, UniProt O75116); conditions: 0.1 or 1 μM inhibitor; mean of triplicate
Summary of the method: as §1

[32] = target: MKK6 (Homo sapiens, UniProt P52564); conditions: 0.1 or 1 μM inhibitor; mean of triplicate
Summary of the method: as §1

[33] = target: TAO1 (Homo sapiens, UniProt Q7L7X3); conditions: 0.1 or 1 μM inhibitor; mean of triplicate
Summary of the method: as §1

[34] = 0.1 or 1 μM inhibitor, mean of triplicate

Sequence of MAPKAP-K3 (Q16644 whole entry): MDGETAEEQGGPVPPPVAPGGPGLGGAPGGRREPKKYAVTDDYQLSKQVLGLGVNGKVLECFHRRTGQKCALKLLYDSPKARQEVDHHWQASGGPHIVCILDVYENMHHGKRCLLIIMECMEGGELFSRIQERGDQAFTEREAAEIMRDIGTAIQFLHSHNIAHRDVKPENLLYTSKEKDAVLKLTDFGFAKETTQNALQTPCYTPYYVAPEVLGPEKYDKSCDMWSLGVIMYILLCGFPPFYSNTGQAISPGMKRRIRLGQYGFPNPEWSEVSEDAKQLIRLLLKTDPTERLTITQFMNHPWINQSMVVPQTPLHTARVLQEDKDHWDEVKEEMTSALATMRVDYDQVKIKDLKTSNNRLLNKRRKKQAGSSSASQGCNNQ
Sequence of LKB1 (Q15831 whole entry): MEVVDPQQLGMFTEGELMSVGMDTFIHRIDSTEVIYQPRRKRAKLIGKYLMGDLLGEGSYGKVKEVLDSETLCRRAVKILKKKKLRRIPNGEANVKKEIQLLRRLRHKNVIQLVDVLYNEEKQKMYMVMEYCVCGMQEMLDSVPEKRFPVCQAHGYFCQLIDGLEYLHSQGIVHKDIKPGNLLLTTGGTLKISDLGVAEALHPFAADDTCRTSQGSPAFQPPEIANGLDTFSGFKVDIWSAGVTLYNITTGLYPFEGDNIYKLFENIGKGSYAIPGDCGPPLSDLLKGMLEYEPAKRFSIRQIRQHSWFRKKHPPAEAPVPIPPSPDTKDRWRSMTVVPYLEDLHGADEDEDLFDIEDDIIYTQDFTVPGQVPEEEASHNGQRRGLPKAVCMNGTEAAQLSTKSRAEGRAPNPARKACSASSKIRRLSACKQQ
Sequence of LKB1 (Q7RTN6 whole entry partner): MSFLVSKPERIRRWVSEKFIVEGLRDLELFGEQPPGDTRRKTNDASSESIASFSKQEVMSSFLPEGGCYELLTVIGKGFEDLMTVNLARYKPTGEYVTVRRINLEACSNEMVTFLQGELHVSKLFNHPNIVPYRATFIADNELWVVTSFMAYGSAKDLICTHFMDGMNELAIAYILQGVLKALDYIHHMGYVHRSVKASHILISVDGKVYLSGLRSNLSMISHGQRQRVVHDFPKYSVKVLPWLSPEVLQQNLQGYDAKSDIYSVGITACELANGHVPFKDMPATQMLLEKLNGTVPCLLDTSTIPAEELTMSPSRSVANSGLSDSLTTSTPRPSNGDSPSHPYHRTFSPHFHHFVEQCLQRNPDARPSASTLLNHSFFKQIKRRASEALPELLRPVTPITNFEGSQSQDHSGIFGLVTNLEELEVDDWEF
Sequence of LKB1 (Q9Y376 whole entry partner): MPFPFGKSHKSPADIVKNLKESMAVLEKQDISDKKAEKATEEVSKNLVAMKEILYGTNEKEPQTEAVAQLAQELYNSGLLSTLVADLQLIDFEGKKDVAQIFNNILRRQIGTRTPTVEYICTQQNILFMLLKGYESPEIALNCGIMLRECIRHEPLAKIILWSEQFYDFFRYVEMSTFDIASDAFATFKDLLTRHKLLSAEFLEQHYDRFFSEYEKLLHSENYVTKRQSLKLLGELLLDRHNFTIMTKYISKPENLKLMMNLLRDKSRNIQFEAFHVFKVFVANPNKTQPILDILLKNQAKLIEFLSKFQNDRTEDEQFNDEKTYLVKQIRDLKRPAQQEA
Sequence of RSK2 (P51812 whole entry): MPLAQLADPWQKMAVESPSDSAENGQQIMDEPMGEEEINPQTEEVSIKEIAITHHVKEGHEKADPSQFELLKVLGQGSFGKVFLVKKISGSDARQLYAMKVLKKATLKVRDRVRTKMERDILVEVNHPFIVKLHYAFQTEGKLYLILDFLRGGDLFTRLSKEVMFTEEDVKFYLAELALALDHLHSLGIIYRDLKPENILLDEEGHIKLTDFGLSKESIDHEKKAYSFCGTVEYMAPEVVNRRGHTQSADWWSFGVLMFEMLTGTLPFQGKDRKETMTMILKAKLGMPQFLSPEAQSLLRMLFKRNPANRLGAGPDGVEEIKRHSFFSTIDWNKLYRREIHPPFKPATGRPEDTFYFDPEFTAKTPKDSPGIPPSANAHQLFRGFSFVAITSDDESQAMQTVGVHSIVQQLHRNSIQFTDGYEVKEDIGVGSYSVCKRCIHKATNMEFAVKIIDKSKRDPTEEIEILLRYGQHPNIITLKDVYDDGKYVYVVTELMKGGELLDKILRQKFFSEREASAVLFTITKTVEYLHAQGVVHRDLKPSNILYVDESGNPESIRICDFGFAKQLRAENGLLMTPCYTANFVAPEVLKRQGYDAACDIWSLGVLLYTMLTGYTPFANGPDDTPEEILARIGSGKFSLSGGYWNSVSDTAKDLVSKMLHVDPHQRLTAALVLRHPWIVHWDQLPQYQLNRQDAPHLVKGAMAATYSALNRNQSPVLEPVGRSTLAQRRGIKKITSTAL
Sequence of CSK (P41240 whole entry): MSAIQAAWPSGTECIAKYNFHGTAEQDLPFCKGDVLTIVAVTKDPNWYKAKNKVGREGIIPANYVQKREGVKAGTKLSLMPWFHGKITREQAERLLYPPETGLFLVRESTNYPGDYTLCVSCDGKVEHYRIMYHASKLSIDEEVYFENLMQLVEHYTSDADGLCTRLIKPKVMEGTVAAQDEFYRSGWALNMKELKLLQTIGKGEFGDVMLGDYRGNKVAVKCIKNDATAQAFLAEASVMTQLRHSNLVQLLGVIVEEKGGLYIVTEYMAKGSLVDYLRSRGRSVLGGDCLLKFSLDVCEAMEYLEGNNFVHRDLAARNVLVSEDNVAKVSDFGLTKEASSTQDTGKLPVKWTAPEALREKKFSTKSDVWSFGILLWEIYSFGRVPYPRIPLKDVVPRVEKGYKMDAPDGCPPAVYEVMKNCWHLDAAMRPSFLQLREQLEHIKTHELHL
Sequence of TGFBR1 (P36897 34-503): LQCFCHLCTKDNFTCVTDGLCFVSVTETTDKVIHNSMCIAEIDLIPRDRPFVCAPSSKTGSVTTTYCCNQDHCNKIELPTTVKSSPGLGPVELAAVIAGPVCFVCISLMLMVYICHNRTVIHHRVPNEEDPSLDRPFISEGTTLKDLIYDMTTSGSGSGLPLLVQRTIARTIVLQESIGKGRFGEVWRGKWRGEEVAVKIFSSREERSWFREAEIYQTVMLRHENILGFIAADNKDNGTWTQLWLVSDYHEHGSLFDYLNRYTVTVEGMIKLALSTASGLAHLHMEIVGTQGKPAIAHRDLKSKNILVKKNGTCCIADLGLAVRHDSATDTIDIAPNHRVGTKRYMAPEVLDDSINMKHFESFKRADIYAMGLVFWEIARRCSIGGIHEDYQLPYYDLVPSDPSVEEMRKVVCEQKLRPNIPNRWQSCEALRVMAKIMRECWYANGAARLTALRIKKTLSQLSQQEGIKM
Sequence of TIE2 (Q02763 23-1124): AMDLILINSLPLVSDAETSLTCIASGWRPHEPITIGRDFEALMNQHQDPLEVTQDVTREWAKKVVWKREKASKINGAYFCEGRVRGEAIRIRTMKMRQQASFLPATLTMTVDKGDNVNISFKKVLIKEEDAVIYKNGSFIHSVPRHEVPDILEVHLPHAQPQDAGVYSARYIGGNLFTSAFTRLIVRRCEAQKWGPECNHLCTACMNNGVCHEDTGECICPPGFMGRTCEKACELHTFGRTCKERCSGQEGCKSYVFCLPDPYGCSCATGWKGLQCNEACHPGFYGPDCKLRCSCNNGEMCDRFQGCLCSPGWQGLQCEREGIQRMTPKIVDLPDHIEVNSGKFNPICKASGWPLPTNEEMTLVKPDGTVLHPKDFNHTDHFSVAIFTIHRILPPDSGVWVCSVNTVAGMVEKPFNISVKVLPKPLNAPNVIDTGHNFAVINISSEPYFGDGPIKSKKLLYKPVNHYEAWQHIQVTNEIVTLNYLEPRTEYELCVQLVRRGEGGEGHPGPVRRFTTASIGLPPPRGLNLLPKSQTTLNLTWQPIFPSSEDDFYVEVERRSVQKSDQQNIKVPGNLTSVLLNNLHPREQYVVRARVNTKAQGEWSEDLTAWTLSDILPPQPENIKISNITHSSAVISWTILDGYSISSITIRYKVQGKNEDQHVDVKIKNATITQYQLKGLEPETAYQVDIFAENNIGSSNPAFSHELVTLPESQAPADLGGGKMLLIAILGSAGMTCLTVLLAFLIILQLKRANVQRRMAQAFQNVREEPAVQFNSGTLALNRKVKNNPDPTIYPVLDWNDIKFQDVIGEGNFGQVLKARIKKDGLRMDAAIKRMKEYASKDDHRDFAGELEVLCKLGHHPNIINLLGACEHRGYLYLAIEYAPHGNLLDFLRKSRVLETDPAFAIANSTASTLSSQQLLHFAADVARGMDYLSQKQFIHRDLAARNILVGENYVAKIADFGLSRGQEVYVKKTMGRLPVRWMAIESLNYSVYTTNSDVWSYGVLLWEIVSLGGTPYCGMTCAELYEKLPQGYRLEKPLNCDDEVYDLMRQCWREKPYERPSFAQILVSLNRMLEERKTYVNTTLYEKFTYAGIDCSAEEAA
Sequence of CAMKKβ (Q96RR4 whole entry): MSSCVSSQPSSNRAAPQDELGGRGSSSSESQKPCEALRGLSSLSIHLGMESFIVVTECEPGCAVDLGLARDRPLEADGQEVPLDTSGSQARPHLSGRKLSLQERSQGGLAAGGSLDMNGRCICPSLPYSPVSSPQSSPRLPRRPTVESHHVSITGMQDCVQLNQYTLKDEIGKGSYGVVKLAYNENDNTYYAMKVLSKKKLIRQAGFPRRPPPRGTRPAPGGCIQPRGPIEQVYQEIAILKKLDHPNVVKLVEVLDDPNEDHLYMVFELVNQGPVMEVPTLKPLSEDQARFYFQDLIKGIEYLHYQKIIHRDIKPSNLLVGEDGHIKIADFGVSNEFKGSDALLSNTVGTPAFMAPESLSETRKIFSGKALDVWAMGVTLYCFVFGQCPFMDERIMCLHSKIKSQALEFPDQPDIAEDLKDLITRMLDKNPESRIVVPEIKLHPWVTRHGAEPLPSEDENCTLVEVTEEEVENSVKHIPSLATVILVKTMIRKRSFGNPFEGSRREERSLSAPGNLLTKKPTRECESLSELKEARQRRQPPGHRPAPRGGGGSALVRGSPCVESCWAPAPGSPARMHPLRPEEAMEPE

Compound | PHK activity, percentage of DMSO control [1] [percentage] | RSK2 activity, percentage of DMSO control [2] [percentage] | MAP4K3 activity, percentage of DMSO control [4] [percentage] | MINK1 activity, percentage of DMSO control [5] [percentage] | CAMKKβ activity, percentage of DMSO control [6] [percentage] | MAPKAP-K3 activity, percentage of DMSO control [7] [percentage] | HIPK3 activity, percentage of DMSO control [8] [percentage] | PKCγ activity, percentage of DMSO control [10] [percentage] | EPH-B2 activity, percentage of DMSO control [11] [percentage] | MST4 activity, percentage of DMSO control [12] [percentage] | VEG-FR activity, percentage of DMSO control [13] [percentage] | MKK1 activity, percentage of DMSO control [14] [percentage] | CSK activity, percentage of DMSO control [15] [percentage] | SIK2 activity, percentage of DMSO control [16] [percentage] | TTBK1 activity, percentage of DMSO control [17] [percentage] | TGFBR1 activity, percentage of DMSO control [18] [percentage] | ASK1 activity, percentage of DMSO control [19] [percentage] | EPH-B3 activity, percentage of DMSO control [20] [percentage] | IGF-1R activity, percentage of DMSO control [21] [percentage] | PIM2 activity, percentage of DMSO control [22] [percentage] | other results
Cc1nc(Nc2cnn(C3CCNCC3)c2)nc2c1N(C)C(=O)c1cc3ccccc3cc1N2C [HTH-01-015] | 104 | 106 | 127 | 101 | 87 | 96 | 96 | 107 | 97 | 119 | 97 | 113 | 103 | 112 | 124 | 102 | 105 | 120 | 133 | 106 | AMPK activity, percentage of DMSO control [3, 34]: 127 percentage; MARK3 activity, percentage of DMSO control [9, 34]: 102 percentage; IRAK4 activity, percentage of DMSO control [23]: 103 percentage; EPH-B1 activity, percentage of DMSO control [24]: 97 percentage; EIF2AK3 activity, percentage of DMSO control [25]: 99 percentage; PKCζ activity, percentage of DMSO control [26]: 98 percentage; p38β MAPK activity, percentage of DMSO control [27]: 112 percentage; TIE2 activity, percentage of DMSO control [28]: 84 percentage; LKB1 activity, percentage of DMSO control [29]: 98 percentage; NUAK1 activity, percentage of DMSO control [30]: 11 percentage; ROCK 2 activity, percentage of DMSO control [31]: 110 percentage; MKK6 activity, percentage of DMSO control [32]: 87 percentage; TAO1 activity, percentage of DMSO control [33]: 123 percentage
CCC(=O)Nc1cccc(Oc2nc(Nc3ccc(N4CCN(C)CC4)cc3OC)ncc2Cl)c1 [WZ4003] | 54 | 76 | 111 | 120 | 44 | 91 | 91 | 103 | 107 | 101 | 74 | 98 | 105 | 70 | 78 | 102 | 107 | 113 | 33 | 101 | IRAK4 activity, percentage of DMSO control [23]: 92 percentage; EPH-B1 activity, percentage of DMSO control [24]: 98 percentage; EIF2AK3 activity, percentage of DMSO control [25]: 76 percentage; PKCζ activity, percentage of DMSO control [26]: 86 percentage; p38β MAPK activity, percentage of DMSO control [27]: 104 percentage; TIE2 activity, percentage of DMSO control [28]: 94 percentage; LKB1 activity, percentage of DMSO control [29]: 87 percentage; NUAK1 activity, percentage of DMSO control [30]: 6 percentage; ROCK 2 activity, percentage of DMSO control [31]: 80 percentage; MKK6 activity, percentage of DMSO control [32]: 101 percentage; TAO1 activity, percentage of DMSO control [33]: 101 percentage
CN1C(=O)c2ccccc2N(C)c2nc(Nc3cnn(C4CCNCC4)c3)ncc21 [XMD-17-51] | – | – | – | – | – | – | – | – | – | – | – | – | – | – | – | – | – | – | – | – | Inhibition of AMPK in profiling (in words) ([3]; 1 μM): inhibited; Inhibition of MARK3 in profiling (in words) ([9]; 1 μM): inhibited
